For the assay, the target named is binding of human von Willebrand factor to europium (Eu)-chelate-labeled chimeric GPIb-Fc protein (Homo sapiens, UniProt P04275+P07359). The assay is described as follows: Von Willebrand Factor-GPIb Binding Assay (Eu based, botrocetin-induced). To be noted: botrocetin-induced binding of Eu-chelate-labeled chimeric GPIb-Fc to immobilized human vWF; IC50 values as specified in the examples. As for the experimental part:
Activity of compounds of the formula I was shown by an Eu based binding assay in which the binding of human von Willebrand factor to an europium (Eu)-chelate-labeled chimeric GPIb-Fc protein was induced by botrocetin. The preparation of the Eu-chelate-labeled chimeric GPIb-Fc protein is described in detail in a patent application (Fukuchi et al., EP1074564).
A TBS (Tris buffered saline, 20 mM Tris-HCl (pH 7.4) and 0.15 M NaCl) (50 microl) containing human von Willebrand factor (2.5 microg/ml) was added to each well of 1 96-well plate, and the von Willebrand factor was immobilized as a solid phase overnight at 4 dec. Each well was washed once with TBS (150 microl) and blocked with TBS containing 5% BSA (bovine serum albumin) for about 3 hours. Each well of the plate was washed twice with TBS (150 microl), and then added with 25 microl of an assay buffer (Assay Buffer, 1244-106, produced by Wallac) with the compounds, further added with the assay buffer (25 microl) containing the europium (Eu)-chelate-labeled chimeric GPIb-Fc protein (100 ng/ml), labeled with Eu-N1-ITC (Eu-chelate of N^1-(p-isothiocyanatebenzyl)-diethlenetriamine-N^1,N^2,N^3,N^3-tetraacetic acid, 1244-302, produced by Wallac) and botrocetin (500 ng/ml), and left stand at room temperature for 2 hours. The preparation of the Eu-chelate-labeled chimeric GPIb-Fc protein is described in detail in a patent application (Fukuchi et al., EP1074564). Each well of the plate was washed 5 times with TBS (150 microl) containing 0.05% Tween-20, then added with 100 microl of a fluorescence enhancement buffer (Enhancement Solution, 1244-104, produced by Wallac), and shaken for 1 minute. Then, the amount of europium (Eu) was measured by using a 1420 ARVO multi-label counter (produced by Wallac, measurements time: 1 second).

Each structure is given as a SMILES string.

We go through 26 compounds from patent US7745443B2 (Sanofi-Aventis Deutschland GmbH, priority 2002, dated 2010).

binding of human von Willebrand factor to europium (Eu)-chelate-labeled chimeric GPIb-Fc protein, sequence (P04275 764-2813 limits assumed, change not shown): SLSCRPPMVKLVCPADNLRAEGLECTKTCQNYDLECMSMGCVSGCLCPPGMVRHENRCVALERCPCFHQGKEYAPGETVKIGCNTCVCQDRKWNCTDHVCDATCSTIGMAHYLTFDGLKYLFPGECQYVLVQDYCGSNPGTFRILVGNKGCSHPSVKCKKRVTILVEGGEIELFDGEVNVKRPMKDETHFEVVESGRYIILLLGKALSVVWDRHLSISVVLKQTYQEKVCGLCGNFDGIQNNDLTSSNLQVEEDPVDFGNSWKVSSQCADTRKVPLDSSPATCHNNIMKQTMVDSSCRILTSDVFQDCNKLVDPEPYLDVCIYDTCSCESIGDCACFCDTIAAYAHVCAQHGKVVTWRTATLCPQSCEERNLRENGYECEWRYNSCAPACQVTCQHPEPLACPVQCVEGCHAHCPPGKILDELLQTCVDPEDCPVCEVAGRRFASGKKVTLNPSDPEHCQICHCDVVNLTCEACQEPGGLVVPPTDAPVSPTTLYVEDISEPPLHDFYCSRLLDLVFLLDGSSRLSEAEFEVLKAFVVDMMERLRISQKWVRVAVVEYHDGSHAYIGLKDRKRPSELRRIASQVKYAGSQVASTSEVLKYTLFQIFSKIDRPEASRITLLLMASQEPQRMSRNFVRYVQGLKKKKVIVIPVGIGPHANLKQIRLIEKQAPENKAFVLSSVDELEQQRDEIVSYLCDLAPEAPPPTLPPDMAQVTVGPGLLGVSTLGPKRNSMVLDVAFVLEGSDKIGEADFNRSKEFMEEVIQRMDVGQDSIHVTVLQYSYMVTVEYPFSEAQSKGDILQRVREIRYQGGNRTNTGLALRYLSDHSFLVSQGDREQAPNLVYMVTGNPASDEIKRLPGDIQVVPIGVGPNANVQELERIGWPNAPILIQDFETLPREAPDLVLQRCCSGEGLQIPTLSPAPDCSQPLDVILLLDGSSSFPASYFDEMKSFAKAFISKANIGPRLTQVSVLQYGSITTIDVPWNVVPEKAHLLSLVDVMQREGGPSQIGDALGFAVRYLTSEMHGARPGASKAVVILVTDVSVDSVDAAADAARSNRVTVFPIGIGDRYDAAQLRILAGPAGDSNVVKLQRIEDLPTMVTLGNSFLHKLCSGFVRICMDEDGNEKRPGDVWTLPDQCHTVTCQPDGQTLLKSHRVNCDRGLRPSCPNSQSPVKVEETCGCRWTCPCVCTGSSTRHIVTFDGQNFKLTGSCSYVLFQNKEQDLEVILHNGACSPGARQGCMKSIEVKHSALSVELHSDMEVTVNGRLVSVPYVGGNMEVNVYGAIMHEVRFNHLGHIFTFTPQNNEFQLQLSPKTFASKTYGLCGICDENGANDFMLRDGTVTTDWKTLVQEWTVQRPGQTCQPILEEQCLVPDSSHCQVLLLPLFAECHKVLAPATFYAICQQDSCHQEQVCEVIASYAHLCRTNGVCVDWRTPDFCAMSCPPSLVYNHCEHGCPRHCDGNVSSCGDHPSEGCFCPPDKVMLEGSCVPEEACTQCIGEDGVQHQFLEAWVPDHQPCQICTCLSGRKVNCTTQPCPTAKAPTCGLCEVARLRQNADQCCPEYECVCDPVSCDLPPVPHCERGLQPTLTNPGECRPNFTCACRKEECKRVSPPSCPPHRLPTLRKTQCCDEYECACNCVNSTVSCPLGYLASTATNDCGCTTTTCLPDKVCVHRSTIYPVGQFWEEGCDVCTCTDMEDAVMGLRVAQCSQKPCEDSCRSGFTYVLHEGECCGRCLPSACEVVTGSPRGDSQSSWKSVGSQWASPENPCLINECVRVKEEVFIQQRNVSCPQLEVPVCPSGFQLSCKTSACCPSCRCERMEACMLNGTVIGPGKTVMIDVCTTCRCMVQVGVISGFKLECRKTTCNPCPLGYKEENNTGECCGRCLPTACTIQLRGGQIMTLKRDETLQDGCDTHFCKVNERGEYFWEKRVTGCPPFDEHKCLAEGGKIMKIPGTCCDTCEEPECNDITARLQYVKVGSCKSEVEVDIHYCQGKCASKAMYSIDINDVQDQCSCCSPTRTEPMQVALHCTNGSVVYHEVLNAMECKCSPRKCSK
binding of human von Willebrand factor to europium (Eu)-chelate-labeled chimeric GPIb-Fc protein, sequence (P07359 17-335 limits assumed, change not shown): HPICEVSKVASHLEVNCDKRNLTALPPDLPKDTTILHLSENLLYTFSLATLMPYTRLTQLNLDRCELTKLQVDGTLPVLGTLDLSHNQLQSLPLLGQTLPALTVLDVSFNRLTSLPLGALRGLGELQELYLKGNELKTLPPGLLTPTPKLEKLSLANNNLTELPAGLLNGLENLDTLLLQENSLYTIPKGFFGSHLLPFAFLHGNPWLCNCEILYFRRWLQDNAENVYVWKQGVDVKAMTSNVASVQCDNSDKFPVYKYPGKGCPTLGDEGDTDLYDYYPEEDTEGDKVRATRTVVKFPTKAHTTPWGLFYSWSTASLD

`Cc1cc(N)c2cc(NC(=O)c3ccc(CNc4cc(C)[n+](C)c(N)n4)cc3)ccc2n1` [Example 3, 2-Amino-4-[4-(4-amino-2-methyl-quinolin-6-ylcarbamoyl)-benzylamino]-1,6-dimethyl-pyrimidin-1-ium] registered an IC50 of 92.1 µM.
Compound `Cc1cc(N)c2cc(C(=O)Nc3ccc(NC(=O)c4cccnc4N)cc3)ccc2n1` [Example 21, 4-Amino-N-(4-{[(2-amino-3-pyridinyl)carbonyl]amino}phenyl)-2-methyl-6-quinolinecarboxamide] registered an IC50 of 34.4 µM.
With `Cc1cc(N)c2cc(C(=O)Nc3ccc(NC(=O)c4ccc5nc(N)ccc5c4)cc3)ccc2n1` [Example 33, 4-Amino-N-(4-{[(2-amino-6-quinolinyl)carbonyl]amino}phenyl)-2-methyl-6-quinolinecarboxamide] the figure was 1.7 µM.
As to `Cc1cc(N)c2cc(NC(=O)c3ccc(CNC(=O)c4cnccn4)cc3)ccc2n1` [Example 4, Pyrazine-2-carboxylic acid 4-(4-amino-2-methyl-quinolin-6-ylcarbamoyl)-benzylamide], the IC50 was 75.5 µM.
With `Cc1cc(N)c2cc(C(=O)Nc3ccc(NC(=O)c4ccc(OC5CCNCC5)cc4)cc3)ccc2n1` [Example 29, 4-Amino-N-(4-{[4-(4-piperidinyloxy)benzoyl]amino}phenyl)-2-methyl-6-quinolinecarboxamide] the figure was 19.8 µM; with `Cc1cc(N)c2cc(C(=O)Nc3ccc(NC(=O)c4ccc5nc(C)cc(N)c5c4)cc3)ccc2n1` [Example 36], 1.57 µM.
As to `Cc1cc(N)c2cc(C(=O)Nc3ccc(CNc4ccc5cn[nH]c5c4)cc3)ccc2n1` [Example 37, 4-Amino-N-{4-[(1H-indazol-6-ylamino)methyl]phenyl}-2-methyl-6-quinolinecarboxamide], the IC50 was determined as 2.56 µM.
As for `Cc1cc(N)c2cc(C(=O)NC3CCC(NC(=O)c4ccc5nc(N)ccc5c4)CC3)ccc2n1` (centres unmarked) [Example 39, 4-Amino-N-(4-{[(2-amino-6-quinolinyl)carbonyl]amino}cyclohexyl)-2-methyl-6-quinolinecarboxamide], the IC50 is 28.5 µM.
To `Cc1cc(N)c2cc(C(=O)Nc3ccc(Nc4cc(C)[n+](C)c(N)n4)cc3)ccc2n1` [Example 7, 2-Amino-4-[(4-{[(4-amino-2-methyl-6-quinolinyl)carbonyl]amino}phenyl)amino]-1,6-dimethylpyrimidin-1-ium] belongs 7.62 µM.
To `Cc1cc(N)c2cc(C(=O)Nc3ccc(NC(=O)c4ccc(O)nc4)cc3)ccc2n1` [Example 23, 4-Amino-N-(4-{[(2-hydroxy-5-pyridinyl)carbonyl]amino}phenyl)-2-methyl-6-quinolinecarboxamide] belongs 42.1 µM; to `Cc1cc(N)c2cc(NC(=O)c3ccc(CNC(=O)c4ccc(N)nc4)cc3)ccc2n1` [Example 5, 6-Amino-N-[4-(4-amino-2-methyl-quinolin-6-ylcarbamoyl)-benzyl]-nicotinamide], 89.9 µM.
In the case of `COc1cc(NC(=O)c2ccc3nc(N)ccc3c2)ccc1NC(=O)c1ccc2nc(C)cc(N)c2c1` [Example 34, 4-Amino-N-(4-{[(2-amino-6-quinolinyl)carbonyl]amino}-2-methoxyphenyl)-2-methyl-6-quinolinecarboxamide], the IC50 turned out to be 3.61 µM.
With `Cc1cc(N)c2cc(C(=O)Nc3ccc(CNC(=O)c4ccnc(Cl)c4)cc3)ccc2n1` [Example 13, 4-Amino-N-[4-({[(2-chloro-4-pyridinyl)carbonyl]amino}methyl)phenyl]-2-methyl-6-quinolinecarboxamide] the figure was 90.1 µM.
For `Cc1cc(NCc2ccc(NC(=O)c3ccc4nc(C)cc(N)c4c3)cc2)nc(N)n1` [Example 10, 2-Amino-4-[(4-{[(4-amino-2-methyl-6-quinolinyl)carbonyl]amino}benzyl)amino]-6-methylpyrimidine], the IC50 came out at 68.6 µM.
With `Cc1cc(N)c2cc(C(=O)Nc3ccc(CNc4cc(C)[n+](C)c(N)n4)cc3)ccc2n1` [Example 9, 2-Amino-4-[(4-{[(4-amino-2-methyl-6-quinolinyl)carbonyl]amino}benzyl)amino]-1,6-dimethylpyrimidin-1-ium] the figure was 20.1 µM.
With `Cc1cc(N)c2cc(C(=O)Nc3ccc(NC(=O)c4cnc(Cl)c(Cl)c4)cc3)ccc2n1` [Example 25, 4-Amino-N-(4-{[(2,3-dichloro-5-pyridinyl)carbonyl]amino}phenyl)-2-methyl-6-quinolinecarboxamide] the figure was 22.9 µM; with `Cc1cc(N)c2cc(C(=O)Nc3ccc(NC(=O)c4cccc(N(C)C)c4)cc3)ccc2n1` [Example 27, 4-Amino-N-{4-[(3-dimethylaminobenzoyl)amino]phenyl}-2-methyl-6-quinolinecarboxamide], 46.5 µM; with `Cc1cc(N)c2cc(C(=O)Nc3ccc(NC(=O)c4ccc5[nH]c(N)nc5c4)cc3)ccc2n1` [Example 30, 4-Amino-N-(4-{[(2-amino-1H-benzimidazol-5-yl)carbonyl]amino}phenyl)-2-methyl-6-quinolinecarboxamide], 4.03 µM.
With `Cc1cc(N)c2cc(NC(=O)c3cccc(Nc4cc(C)[n+](C)c(N)n4)c3)ccc2n1` [Example 2, 2-Amino-4-[3-(4-amino-2-methyl-quinolin-6-ylcarbamoyl)-phenylamino]-1,6-dimethyl-pyrimidin-1-ium] the figure was 8.84 µM.
`Cc1cc(N)c2cc(C(=O)Nc3cccc(Nc4cc(C)[n+](C)c(N)n4)c3)ccc2n1` [Example 8, 2-Amino-4-[(3-{[(4-amino-2-methyl-6-quinolinyl)carbonyl]amino}phenyl)amino]-1,6-dimethylpyrimidin-1-ium]: the IC50 was found to be 82.6 µM.
With `Cc1cc(N)c2cc(NC(=O)c3ccc(CNC(=O)c4cncc(N5CCCC5)n4)cc3)ccc2n1` [Example 6, 6-Pyrrolidin-1-yl-pyrazine-2-carboxylic acid 4-(4-amino-2-methyl-quinolin-6-ylcarbamoyl)-benzylamide] the figure was 47.9 µM; with `Cc1cc(NCCC(=O)Nc2ccc3nc(C)cc(N)c3c2)nc(N)n1` [Example 1, 3-(2-Amino-6-methyl-pyrimidin-4-ylamino)-N-(4-amino-2-methyl-quinolin-6-yl)-propionamide], 24.3 µM; with `Cc1cc(N)c2cc(C(=O)Nc3ccc(NC(=O)c4cccnc4Cl)cc3)ccc2n1` [Example 18, 4-Amino-N-(4-{[(2-chloro-3-pyridinyl)carbonyl]amino}phenyl)-2-methyl-6-quinolinecarboxamide], 52.6 µM.
With `Cc1cc(N)c2cc(C(=O)Nc3ccc(NC(=O)c4ccc(Cl)c(S(N)(=O)=O)c4)cc3)ccc2n1` [Example 26, 4-Amino-N-(4-{[3-(aminosulfonyl)-4-chlorobenzoyl]amino}phenyl)-2-methyl-6-quinolinecarboxamide] the figure was 32.8 µM; with `Cc1cc(N)c2cc(C(=O)NC3CCC(NC(=O)c4ccc5nc(N)sc5c4)CC3)ccc2n1` (centres unmarked) [Example 38, 4-Amino-N-(4-{[(2-amino-1,3-benzothiazol-6-yl)carbonyl]amino}cyclohexyl)-2-methyl-6-quinolinecarboxamide], 33.3 µM; with `COc1cc(NC(=O)c2ccc3[nH]c(C)nc3c2)ccc1NC(=O)c1ccc2nc(C)cc(N)c2c1` [Example 35, 4-Amino-N-(2-methoxy-4-{[(2-methyl-1H-benzimidazol-5-yl)carbonyl]amino}phenyl)-2-methyl-6-quinolinecarboxamide], 9.18 µM.

The term IC50 denotes the concentration at which inhibition is half-maximal.
